From patent US6423730B1, “Method to control termites” (Dow AgroSciences LLC, priority 1999, dated 2002)

Experiments:
Reticulitermes = test: AWPA E1-97 treated southern yellow pine wood block termite test; format: in vivo; conditions: treated southern yellow pine wood blocks, four weeks
Experimental: Compounds of Formula I were evaluated using standard evaluation methodology as prescribed by the American Wood Preservers Association Standard AWPA E1-97, incorporated herein by reference, using a species of the destructive termite, Reticulitermes.
In this test replicate containers containing damp sand and southern yellow pine wood blocks treated with the compound are used. Termites are introduced into the test container and after four weeks the containers are disassembled and the wood blocks are evaluated for termite damage. Termite mortality is also evaluated.

Reticulitermes lalvipes = test: Treated filter pad and pine wood chip petri dish termite kill test; format: in vivo; conditions: 8 days after treatment, 13° C.
Experimental: Subterranean worker termites, Reticulitermes lalvipes, were purchased from Carolina Biological Supply Co. The insects were stored with their shipping material, decayed wood chips and moist paper towels, in an unlit growth chamber at 13° C. for three days prior to start of the test. This delay was to acclimate the termites to the test conditions as well as to eliminate weak individuals.
The compounds tested, 100 mg each, were dissolved in 10 mL of pure ethanol (dehydrated, 200 proof) to provide a solution of 10,000 ppm. The solution was serial diluted by 10× to achieve dilutions of 1,000, 100, 10, and 1 ppm. A pure cellulose fiber filter pad was soaked with 1 mL of each test sample and placed into a Falcon petri dish (50×9 mm sterile polystyrene). In addition, a pine wood chip, approximately 12×12×4 mm was dipped into the test solution for 30 seconds and placed on the filter paper. Solvent from the treated filters and wood chips was then allowed to evaporate for 24 hours. The next day, five termites were placed on the filter pad and the upper lid of the petri plate was secured. Three replications were used for each treatment.
The termites in the petri dishes were returned to the growth chamber at 13° C. The humidity was high enough to allow for condensation on the upper plate surface, which provided water for the termites. The petri dishes were briefly removed from the chamber at 2, 4, and 8 days after treatment to count the number of live termites. Data was expressed as the percentage of control (kill) of termites.

## CCOP(=S)(OCC)Oc1nc(Cl)c(Cl)cc1Cl [Comparative, chlorpyrifos, reference compound]
Reticulitermes
  Minimum Retention Preventing Termite Attack: >0.160 kg/m^3

## O=C(Nc1cc(Cl)c(Cl)c(Cl)c1)c1sc(C(F)(F)F)nc1C(F)(F)F [Compound 4]
Reticulitermes lalvipes; dose 1 ppm
  Control (% kill at 8 days): 77%
Reticulitermes lalvipes; dose 10 ppm
  Control (% kill at 8 days): 47%
Reticulitermes lalvipes; dose 100 ppm
  Control (% kill at 8 days): 33%
Reticulitermes lalvipes; dose 1,000 ppm
  Control (% kill at 8 days): 73%
Reticulitermes lalvipes; dose 10,000 ppm
  Control (% kill at 8 days): 100%

## O=C(Nc1c(Br)cc(OC(F)(F)F)cc1Br)c1sc(C(F)(F)F)nc1C(F)(F)F [Compound 5]
Reticulitermes
  Minimum Retention Preventing Termite Attack: 0.768 kg/m^3

## O=C(Nc1ccc(Cl)c(Cl)c1Cl)c1sc(C(F)(F)F)nc1C(F)(F)F [Compound 6]
Reticulitermes lalvipes; dose 1 ppm
  Control (% kill at 8 days): 33%
Reticulitermes lalvipes; dose 10 ppm
  Control (% kill at 8 days): 27%
Reticulitermes lalvipes; dose 100 ppm
  Control (% kill at 8 days): 53%
Reticulitermes lalvipes; dose 1,000 ppm
  Control (% kill at 8 days): 100%
Reticulitermes lalvipes; dose 10,000 ppm
  Control (% kill at 8 days): 100%

## O=C(Nc1cc(Cl)c(Cl)cc1Cl)c1sc(C(F)(F)F)nc1C(F)(F)F [Compound 7]
Reticulitermes lalvipes; dose 1 ppm
  Control (% kill at 8 days): 73%
Reticulitermes lalvipes; dose 10 ppm
  Control (% kill at 8 days): 60%
Reticulitermes lalvipes; dose 100 ppm
  Control (% kill at 8 days): 87%
Reticulitermes lalvipes; dose 1,000 ppm
  Control (% kill at 8 days): 100%
Reticulitermes lalvipes; dose 10,000 ppm
  Control (% kill at 8 days): 100%

## O=C(Nc1ccc(Cl)cc1Cl)c1sc(C(F)(F)F)nc1C(F)(F)F [Compound 8]
Reticulitermes lalvipes; dose 1 ppm
  Control (% kill at 8 days): 7%
Reticulitermes lalvipes; dose 10 ppm
  Control (% kill at 8 days): 0%
Reticulitermes lalvipes; dose 100 ppm
  Control (% kill at 8 days): 0%
Reticulitermes lalvipes; dose 1,000 ppm
  Control (% kill at 8 days): 20%
Reticulitermes lalvipes; dose 10,000 ppm
  Control (% kill at 8 days): 100%

## O=C(Nc1cc(Cl)ccc1Cl)c1sc(C(F)(F)F)nc1C(F)(F)F [Compound 9]
Reticulitermes lalvipes; dose 1 ppm
  Control (% kill at 8 days): 27%
Reticulitermes lalvipes; dose 10 ppm
  Control (% kill at 8 days): 40%
Reticulitermes lalvipes; dose 100 ppm
  Control (% kill at 8 days): 20%
Reticulitermes lalvipes; dose 1,000 ppm
  Control (% kill at 8 days): 53%
Reticulitermes lalvipes; dose 10,000 ppm
  Control (% kill at 8 days): 100%

## O=C(Nc1c(Cl)cccc1Cl)c1sc(C(F)(F)F)nc1C(F)(F)F [Compound 10]
Reticulitermes lalvipes; dose 1 ppm
  Control (% kill at 8 days): 7%
Reticulitermes lalvipes; dose 10 ppm
  Control (% kill at 8 days): 0%
Reticulitermes lalvipes; dose 100 ppm
  Control (% kill at 8 days): 0%
Reticulitermes lalvipes; dose 1,000 ppm
  Control (% kill at 8 days): 67%
Reticulitermes lalvipes; dose 10,000 ppm
  Control (% kill at 8 days): 73%

## O=C(Nc1cc(Cl)cc(Cl)c1)c1sc(C(F)(F)F)nc1C(F)(F)F [Compound 11]
Reticulitermes lalvipes; dose 1 ppm
  Control (% kill at 8 days): 0%
Reticulitermes lalvipes; dose 10 ppm
  Control (% kill at 8 days): 7%
Reticulitermes lalvipes; dose 100 ppm
  Control (% kill at 8 days): 13%
Reticulitermes lalvipes; dose 1,000 ppm
  Control (% kill at 8 days): 13%
Reticulitermes lalvipes; dose 10,000 ppm
  Control (% kill at 8 days): 67%
